These results are taken from patent US9302999B2, “Substituted triazoles as herbicides” (E. I. DU PONT DE NEMOURS AND COMPANY, priority 2012, dated 2016).

The subject of one assay is Barnyardgrass. Description: Test C preemergence: barnyardgrass. The assay is classed as in vivo, Echinochloa crus-galli. From the text:
Seeds of plant species selected from blackgrass (Alopecurus myosuroides), bromegrass, downy (downy bromegrass, Bromus tectorum), foxtail, green (green foxtail, Setaria viridis), ryegrass, Italian (Italian ryegrass, Lolium multiflorum), winter wheat (Triticum aestivum), wild oat (Avena fatua), galium (catchweed bedstraw, Galium aparine), bermudagrass (Cynodon dactylon), surinam grass (Brachiaria decumbens), cocklebur (common cocklebur, Xanthium strumarium), corn (Zea mays), large crabgrass (Digitaria sanguinalis), woolly cupgrass (Eriochloa villosa), foxtail, giant (giant foxtail, Setaria faberii), goosegrass (Eleusine indica), johnsongrass (Sorghum halepense), kochia (Kochia scoparia), lambsquarters (Chenopodium album), morningglory (Ipomoea coccinea), nightshade (eastern black nightshade, Solanum ptycanthum), nutsedge, yellow (yellow nutsedge, Cyperus esculentus), pigweed (Amaranthus retroflexus), ragweed (common ragweed, Ambrosia elation), soybean (Glycine max), common (oilseed) sunflower (Helianthus annuus), Russian thistle (Salsola kali) and velvetleaf (Abutilon theophrasti) were planted into a blend of loam soil and sand and treated preemergence with test chemicals formulated in a non-phytotoxic solvent mixture which included a surfactant.
Treated plants and controls were maintained in a greenhouse for 13 to 15 days, after which time all species were compared to controls and visually evaluated. Plant response ratings, summarized in Table C, are based on a scale of 0 to 100 where 0 is no effect and 100 is complete control. A dash (-) response means no test result.

In assay [1] the test system is velvetleaf (Abutilon theophrasti). Put plainly: Test A pre-/postemergence: velvetleaf. The assay is classed as in vivo. The gist of the method: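 Injury was scored visually on a 0 (no effect) to 100 (complete control) scale versus untreated controls roughly ten days after treatment in the greenhouse. Compounds, formulated in surfactant-containing non-phytotoxic solvent, went on as soil-directed preemergence spray or postemergence to one- to two-leaf plants 2–10 cm tall.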

Assay [2] concerns pigweed (Amaranthus retroflexus). Description: Test C pre-/postemergence: pigweed. The note with it: Preemergence. The assay is classed as in vivo. A digest of the protocol:
(§1)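 Visual injury scored 0–100 (100 = complete control) against untreated controls after 13–15 greenhouse days. Surfactant-containing solvent formulations applied either to soil after sowing (loam/sand) or over 1- to 4-leaf plants, 2–18 cm tall.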

A further assay relates to rice (Oryza sativa). Put plainly: Test B flooded paddy: rice. In kind it is in vivo. The note with it: Flood; 125 g ai/ha; applied to paddy water at 2-leaf stage; visually evaluated after 13 to 15 days. The gist of the method:
(§2)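 2-leaf plants; pots flooded 3 cm over soil; compound added to paddy water, depth kept constant. Greenhouse 13–15 d. Visual rating vs controls, 0–100 scale (100 = complete control); dash = no result.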

Assay [3] relates to velvetleaf (Abutilon theophrasti). Description: Test C pre-/postemergence: velvetleaf. In kind it is in vivo. The note with it: Preemergence. The gist of the method: as §1
In assay [4] the test system is barnyardgrass (Echinochloa crus-galli). Put plainly: Test B flooded paddy: barnyardgrass. As to conditions: Flood; 125 g ai/ha; applied to paddy water at 2-leaf stage; visually evaluated after 13 to 15 days. In kind it is in vivo. The gist of the method: as §2
Assay [5] concerns winter wheat (Triticum aestivum). Put plainly: Test C pre-/postemergence: winter wheat. The assay is classed as in vivo. As to conditions: Preemergence. The gist of the method: as §1
Assay [6] has as its system galium (catchweed bedstraw, Galium aparine). Put plainly: Test C pre-/postemergence: galium. In kind it is in vivo. The note with it: Preemergence. A digest of the protocol: as §1
Setting [7] is: 31 g ai/ha, scale of 0 to 100, 0 is no effect, 100 is complete control.
The mark [8] stands for this setting: 62 g ai/ha, scale of 0 to 100, 0 is no effect, 100 is complete control.
[9] abbreviates: 125 g ai/ha, scale 0 to 100, 0 no effect, 100 complete control.
Setting [10] is: 250 g ai/ha, scale 0 to 100, 0 no effect, 100 complete control.

Regarding `CCOCc1nn(-c2ccc(F)cc2)nc1Oc1ccnc(C(F)(F)F)c1` [Compound 163], the “Plant response rating, Barnyardgrass” value is 10 in the assay on Barnyardgrass (setting [7]), 25 in the assay on Barnyardgrass (setting [8]) and 75 in the assay with Barnyardgrass (setting [9]). Further, the “Plant response rating, Velvetleaf” value is reported as 40 in assay [1] (Postemergence, 125 g ai/ha, 0 to 100 scale, 0 is no effect, 100 is complete control); 0 in assay [1] (Preemergence, 125 g ai/ha, 0 to 100 scale where 0 is no effect and 100 is complete control); 20 in assay [1] (Preemergence, 500 g ai/ha, 0 to 100 scale (0 no effect, 100 complete control)); 0 in assay [3] (setting [7]); 10 in assay [3] (setting [8]); 20 in assay [3] (setting [9]). In addition, the “Plant response rating, Velvetleaf” value in assay [3] (setting [10]) was 75. Further, the “Velvetleaf plant response rating” value in assay [1] (Postemergence, 500 g ai/ha, 0 to 100 scale, 0 is no effect, 100 is complete control) was found to be 100. The “Plant response rating, Pigweed” value is 95 in assay [2] (setting [7]), 98 in assay [2] (setting [8]), 100 in assay [2] (setting [9]) and 100 in assay [2] (setting [10]). Also, in the assay on rice (Oryza sativa), the “Plant response rating, Rice (0 to 100 scale, 0 is no effect, 100 is complete control)” value was 15. Also, the “Plant response rating, Barnyardgrass (0 to 100 scale, 0 is no effect, 100 is complete control)” value in assay [4] is listed as 15. Further, the “Plant response rating, Wheat” value in assay [5] (setting [8]), in assay [5] (setting [9]) and in assay [5] (setting [10]) was 0 in each case. In addition, the “Plant response rating, Galium” value in assay [6] (setting [7]) was 0; in assay [6] (setting [8]) it was 5; in assay [6] (setting [9]), 5; in assay [6] (setting [10]), 75.
